According to ChEMBL document CHEMBL4507276 (2021):

Experiments:
[1] = target: Dual specificity tyrosine-phosphorylation-regulated kinase 3 (Homo sapiens) (UniProt O43781); assay: DYRK3 Invitrogen selectivity data (BI); conditions: Compound concentration 3.0 uM
[2] = target: Ribosomal protein S6 kinase alpha-6 (Homo sapiens) (UniProt Q9UK32); assay: RPS6KA6 Invitrogen selectivity data (BI); conditions: Compound concentration 3.0 uM
[3] = target: Glutamate receptor ionotropic, NMDA 2A (Rattus norvegicus) (UniProt Q00959); assay: NMDAPHSI/R Eurofins-Panlabs selectivity data (BI); conditions: Compound concentration 10.0 uM
[4] = target: T1, Ephrin type-B receptor 4 (Homo sapiens) (UniProt P54760); assay: EPHB4 Invitrogen selectivity data (BI); conditions: Compound concentration 3.0 uM
T1 sequence (whole entry): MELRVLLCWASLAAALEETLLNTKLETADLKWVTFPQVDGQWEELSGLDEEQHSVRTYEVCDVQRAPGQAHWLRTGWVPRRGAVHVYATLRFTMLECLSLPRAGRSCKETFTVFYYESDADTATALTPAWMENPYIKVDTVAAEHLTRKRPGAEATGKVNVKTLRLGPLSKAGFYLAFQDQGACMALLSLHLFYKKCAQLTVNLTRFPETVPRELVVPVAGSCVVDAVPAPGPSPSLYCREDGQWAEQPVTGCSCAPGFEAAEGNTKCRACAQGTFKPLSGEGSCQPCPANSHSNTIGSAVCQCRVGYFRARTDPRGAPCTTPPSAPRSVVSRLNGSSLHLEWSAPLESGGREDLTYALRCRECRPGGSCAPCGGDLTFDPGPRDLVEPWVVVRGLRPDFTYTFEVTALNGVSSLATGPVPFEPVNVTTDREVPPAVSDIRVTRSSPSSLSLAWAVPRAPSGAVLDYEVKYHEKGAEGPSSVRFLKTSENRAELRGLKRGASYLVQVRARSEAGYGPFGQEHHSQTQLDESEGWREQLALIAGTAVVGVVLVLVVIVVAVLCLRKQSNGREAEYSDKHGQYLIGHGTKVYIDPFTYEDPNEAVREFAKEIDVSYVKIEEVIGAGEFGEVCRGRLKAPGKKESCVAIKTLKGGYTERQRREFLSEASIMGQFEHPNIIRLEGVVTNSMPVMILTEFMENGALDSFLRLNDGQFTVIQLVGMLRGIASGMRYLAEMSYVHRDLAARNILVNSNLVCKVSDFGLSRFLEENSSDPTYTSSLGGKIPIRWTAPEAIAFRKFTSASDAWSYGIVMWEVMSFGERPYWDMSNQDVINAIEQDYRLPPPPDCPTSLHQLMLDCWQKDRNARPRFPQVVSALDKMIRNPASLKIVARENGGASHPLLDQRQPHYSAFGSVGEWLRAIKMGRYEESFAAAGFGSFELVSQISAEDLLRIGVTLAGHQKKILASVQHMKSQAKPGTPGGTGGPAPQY

[5] = target: Alpha-1D adrenergic receptor (Homo sapiens) (UniProt P25100); conditions: Compound concentration 10.0 uM
[6] = target: Delta-type opioid receptor (Homo sapiens) (UniProt P41143); assay: DELTA/HU Eurofins-Panlabs selectivity data (BI); conditions: Compound concentration 10.0 uM
[7] = target: Melanin-concentrating hormone receptor 1 (Homo sapiens) (UniProt Q99705); assay: MCH1H_AGON Cerep selectivity data (BI); conditions: filed as agonist, Compound concentration 20.0 uM
[8] = target: T2, Serine/threonine-protein kinase Nek9 (Homo sapiens) (UniProt Q8TD19); assay: NEK9 Invitrogen selectivity data (BI); conditions: Compound concentration 3.0 uM
T2 sequence (whole entry): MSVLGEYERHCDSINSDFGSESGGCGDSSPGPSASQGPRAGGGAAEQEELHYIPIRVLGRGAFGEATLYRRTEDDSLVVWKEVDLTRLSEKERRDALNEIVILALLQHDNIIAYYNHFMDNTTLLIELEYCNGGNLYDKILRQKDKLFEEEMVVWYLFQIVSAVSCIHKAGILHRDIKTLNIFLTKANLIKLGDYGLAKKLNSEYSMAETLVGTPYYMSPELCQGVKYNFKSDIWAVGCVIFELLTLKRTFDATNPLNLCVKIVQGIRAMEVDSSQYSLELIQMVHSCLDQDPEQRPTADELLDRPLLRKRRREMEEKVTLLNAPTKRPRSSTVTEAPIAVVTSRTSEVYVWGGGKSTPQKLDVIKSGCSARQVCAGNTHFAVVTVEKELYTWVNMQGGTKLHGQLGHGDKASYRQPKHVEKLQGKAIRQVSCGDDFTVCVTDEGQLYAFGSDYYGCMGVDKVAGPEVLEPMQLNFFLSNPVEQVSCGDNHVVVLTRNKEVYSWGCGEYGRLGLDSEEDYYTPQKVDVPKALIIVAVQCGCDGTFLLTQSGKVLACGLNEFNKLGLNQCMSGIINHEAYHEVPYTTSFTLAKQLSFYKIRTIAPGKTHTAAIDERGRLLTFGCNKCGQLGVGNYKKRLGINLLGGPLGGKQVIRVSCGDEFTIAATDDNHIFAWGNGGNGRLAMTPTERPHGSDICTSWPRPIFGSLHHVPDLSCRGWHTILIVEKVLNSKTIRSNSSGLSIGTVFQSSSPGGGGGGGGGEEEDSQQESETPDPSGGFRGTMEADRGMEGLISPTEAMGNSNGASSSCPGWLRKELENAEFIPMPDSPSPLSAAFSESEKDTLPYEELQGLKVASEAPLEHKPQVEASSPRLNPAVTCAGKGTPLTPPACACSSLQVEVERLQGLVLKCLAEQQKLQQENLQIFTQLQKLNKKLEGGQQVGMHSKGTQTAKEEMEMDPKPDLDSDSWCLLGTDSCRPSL

[9] = target: Adenosine receptor A3 (Homo sapiens) (UniProt P0DMS8); assay: A3/H Cerep selectivity data (BI); conditions: Compound concentration 20.0 uM
[10] = target: 5-hydroxytryptamine receptor 1B (Rattus norvegicus) (UniProt P28564); assay: 5HT1B/R Cerep selectivity data (BI); conditions: Compound concentration 20.0 uM
[11] = target: Type-1 angiotensin II receptor (Homo sapiens) (UniProt P30556); assay: AT1/H Cerep selectivity data (BI); conditions: filed as antagonist, Compound concentration 20.0 uM
[12] = target: T3, Serine/threonine-protein kinase Nek2 (Homo sapiens) (UniProt P51955); assay: NEK2 Invitrogen selectivity data (BI); conditions: Compound concentration 3.0 uM
T3 sequence (whole entry): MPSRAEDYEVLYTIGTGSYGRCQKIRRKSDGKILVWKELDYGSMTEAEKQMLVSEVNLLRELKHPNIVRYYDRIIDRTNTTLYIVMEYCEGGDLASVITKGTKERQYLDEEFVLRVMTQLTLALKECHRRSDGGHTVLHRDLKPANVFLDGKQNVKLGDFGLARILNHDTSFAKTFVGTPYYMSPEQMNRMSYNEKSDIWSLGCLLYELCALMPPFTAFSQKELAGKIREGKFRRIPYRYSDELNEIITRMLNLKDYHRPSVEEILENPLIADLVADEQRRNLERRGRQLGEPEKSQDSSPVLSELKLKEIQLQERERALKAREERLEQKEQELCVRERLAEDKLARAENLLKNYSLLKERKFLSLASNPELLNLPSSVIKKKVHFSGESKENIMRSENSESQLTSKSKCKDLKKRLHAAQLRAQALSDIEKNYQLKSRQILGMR

Glutamate receptor ionotropic, NMDA 2A (Rattus norvegicus), sequence (Q00959 23-1464 limits assumed): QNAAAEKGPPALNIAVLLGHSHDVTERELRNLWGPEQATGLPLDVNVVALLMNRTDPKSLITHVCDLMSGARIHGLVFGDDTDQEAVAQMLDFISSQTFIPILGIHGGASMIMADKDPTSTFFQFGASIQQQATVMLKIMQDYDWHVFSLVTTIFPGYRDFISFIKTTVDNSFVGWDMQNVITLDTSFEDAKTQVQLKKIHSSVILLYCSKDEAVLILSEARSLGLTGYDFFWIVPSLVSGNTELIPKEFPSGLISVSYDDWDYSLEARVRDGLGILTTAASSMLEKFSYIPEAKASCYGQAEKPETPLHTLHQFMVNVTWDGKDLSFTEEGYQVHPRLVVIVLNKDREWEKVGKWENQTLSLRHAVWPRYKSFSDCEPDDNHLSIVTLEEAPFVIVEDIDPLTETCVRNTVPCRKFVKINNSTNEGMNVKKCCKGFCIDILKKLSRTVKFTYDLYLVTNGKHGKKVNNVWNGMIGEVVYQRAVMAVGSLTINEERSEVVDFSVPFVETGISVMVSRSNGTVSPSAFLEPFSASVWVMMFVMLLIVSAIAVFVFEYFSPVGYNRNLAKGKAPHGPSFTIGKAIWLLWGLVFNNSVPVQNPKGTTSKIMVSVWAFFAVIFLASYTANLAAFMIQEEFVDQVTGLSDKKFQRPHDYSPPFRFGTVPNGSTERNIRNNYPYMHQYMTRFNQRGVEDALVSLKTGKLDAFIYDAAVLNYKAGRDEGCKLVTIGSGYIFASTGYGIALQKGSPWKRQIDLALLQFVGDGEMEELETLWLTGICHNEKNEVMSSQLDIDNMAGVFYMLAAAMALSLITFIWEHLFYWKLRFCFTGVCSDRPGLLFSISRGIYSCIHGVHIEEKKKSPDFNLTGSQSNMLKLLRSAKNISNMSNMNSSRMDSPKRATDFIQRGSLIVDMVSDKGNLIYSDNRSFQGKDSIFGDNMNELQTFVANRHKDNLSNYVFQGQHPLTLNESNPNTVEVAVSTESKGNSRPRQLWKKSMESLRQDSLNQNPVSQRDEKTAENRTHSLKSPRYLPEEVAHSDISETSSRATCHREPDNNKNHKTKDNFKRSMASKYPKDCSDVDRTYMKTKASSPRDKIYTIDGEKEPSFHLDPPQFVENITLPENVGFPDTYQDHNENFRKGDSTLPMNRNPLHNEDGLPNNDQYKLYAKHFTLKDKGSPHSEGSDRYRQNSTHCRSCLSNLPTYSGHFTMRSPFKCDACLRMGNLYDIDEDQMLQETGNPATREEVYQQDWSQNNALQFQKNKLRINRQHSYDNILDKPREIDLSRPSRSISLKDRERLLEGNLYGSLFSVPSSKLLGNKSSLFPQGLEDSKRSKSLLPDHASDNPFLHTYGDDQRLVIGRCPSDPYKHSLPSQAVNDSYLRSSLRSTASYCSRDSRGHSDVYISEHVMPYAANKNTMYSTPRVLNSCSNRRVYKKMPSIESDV
Adenosine receptor A3 (Homo sapiens), sequence (P0DMS8 whole entry): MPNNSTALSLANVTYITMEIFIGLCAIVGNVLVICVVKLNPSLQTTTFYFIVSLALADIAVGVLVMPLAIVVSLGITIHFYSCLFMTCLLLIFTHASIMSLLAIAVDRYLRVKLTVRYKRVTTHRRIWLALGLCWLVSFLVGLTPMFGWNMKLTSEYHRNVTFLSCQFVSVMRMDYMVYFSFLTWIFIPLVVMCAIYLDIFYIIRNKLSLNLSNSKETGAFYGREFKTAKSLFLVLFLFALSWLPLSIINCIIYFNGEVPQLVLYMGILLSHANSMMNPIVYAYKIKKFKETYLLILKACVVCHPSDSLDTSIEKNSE
Ribosomal protein S6 kinase alpha-6 (Homo sapiens), sequence (Q9UK32 whole entry): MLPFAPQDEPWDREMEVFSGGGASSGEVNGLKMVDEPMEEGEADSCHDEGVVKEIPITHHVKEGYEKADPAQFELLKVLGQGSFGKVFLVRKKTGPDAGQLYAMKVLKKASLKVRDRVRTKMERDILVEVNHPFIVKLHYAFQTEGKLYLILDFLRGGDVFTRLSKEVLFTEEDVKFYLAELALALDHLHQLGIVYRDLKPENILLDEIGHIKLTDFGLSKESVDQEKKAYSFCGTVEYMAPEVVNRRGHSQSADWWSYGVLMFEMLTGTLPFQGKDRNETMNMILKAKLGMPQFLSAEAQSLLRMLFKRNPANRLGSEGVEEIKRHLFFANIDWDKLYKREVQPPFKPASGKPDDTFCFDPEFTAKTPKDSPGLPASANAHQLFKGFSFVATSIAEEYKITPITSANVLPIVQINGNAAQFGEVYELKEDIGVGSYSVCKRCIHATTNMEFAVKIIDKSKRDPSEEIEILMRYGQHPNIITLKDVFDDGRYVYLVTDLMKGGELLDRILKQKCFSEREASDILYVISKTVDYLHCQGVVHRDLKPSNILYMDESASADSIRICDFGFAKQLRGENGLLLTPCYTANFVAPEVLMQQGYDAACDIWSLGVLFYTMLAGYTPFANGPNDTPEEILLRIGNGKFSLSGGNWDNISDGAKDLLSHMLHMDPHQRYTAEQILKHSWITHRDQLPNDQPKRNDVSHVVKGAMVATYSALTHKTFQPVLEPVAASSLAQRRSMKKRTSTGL
Dual specificity tyrosine-phosphorylation-regulated kinase 3 (Homo sapiens), sequence (O43781 whole entry): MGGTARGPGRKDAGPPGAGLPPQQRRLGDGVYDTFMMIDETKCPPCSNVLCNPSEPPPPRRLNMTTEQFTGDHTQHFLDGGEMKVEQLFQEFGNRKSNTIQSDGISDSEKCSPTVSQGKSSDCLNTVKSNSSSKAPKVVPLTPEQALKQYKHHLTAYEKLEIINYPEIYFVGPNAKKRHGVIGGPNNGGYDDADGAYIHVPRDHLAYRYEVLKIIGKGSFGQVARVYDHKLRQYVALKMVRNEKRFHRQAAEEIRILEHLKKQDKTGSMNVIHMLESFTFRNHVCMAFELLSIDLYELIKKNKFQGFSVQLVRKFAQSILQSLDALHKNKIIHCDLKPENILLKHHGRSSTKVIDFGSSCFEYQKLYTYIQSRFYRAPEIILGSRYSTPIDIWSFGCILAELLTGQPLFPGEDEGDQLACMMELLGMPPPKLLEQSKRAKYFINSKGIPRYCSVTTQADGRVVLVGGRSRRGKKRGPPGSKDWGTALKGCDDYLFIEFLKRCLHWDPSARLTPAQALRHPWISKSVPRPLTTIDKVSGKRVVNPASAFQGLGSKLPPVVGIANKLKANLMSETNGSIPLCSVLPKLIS
Melanin-concentrating hormone receptor 1 (Homo sapiens), sequence (Q99705 whole entry): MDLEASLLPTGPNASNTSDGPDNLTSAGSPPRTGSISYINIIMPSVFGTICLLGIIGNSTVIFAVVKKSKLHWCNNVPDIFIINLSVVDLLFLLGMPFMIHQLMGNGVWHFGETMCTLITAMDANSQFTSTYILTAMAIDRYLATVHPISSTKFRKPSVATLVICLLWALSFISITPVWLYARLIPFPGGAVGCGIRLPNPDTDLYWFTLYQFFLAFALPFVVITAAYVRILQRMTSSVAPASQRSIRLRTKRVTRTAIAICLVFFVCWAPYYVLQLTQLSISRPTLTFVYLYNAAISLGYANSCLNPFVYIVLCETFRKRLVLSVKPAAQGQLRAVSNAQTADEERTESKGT
5-hydroxytryptamine receptor 1B (Rattus norvegicus), sequence (P28564 whole entry): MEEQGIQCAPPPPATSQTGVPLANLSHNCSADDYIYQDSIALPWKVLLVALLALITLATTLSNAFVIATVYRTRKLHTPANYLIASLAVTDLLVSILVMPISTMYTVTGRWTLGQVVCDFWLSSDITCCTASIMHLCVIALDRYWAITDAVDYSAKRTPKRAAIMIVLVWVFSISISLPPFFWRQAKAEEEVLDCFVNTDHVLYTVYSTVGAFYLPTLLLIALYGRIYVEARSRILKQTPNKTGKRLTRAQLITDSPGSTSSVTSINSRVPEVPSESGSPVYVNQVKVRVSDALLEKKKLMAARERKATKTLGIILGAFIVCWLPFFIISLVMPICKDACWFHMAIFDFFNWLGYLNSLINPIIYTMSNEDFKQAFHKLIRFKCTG
Alpha-1D adrenergic receptor (Homo sapiens), sequence (P25100 whole entry): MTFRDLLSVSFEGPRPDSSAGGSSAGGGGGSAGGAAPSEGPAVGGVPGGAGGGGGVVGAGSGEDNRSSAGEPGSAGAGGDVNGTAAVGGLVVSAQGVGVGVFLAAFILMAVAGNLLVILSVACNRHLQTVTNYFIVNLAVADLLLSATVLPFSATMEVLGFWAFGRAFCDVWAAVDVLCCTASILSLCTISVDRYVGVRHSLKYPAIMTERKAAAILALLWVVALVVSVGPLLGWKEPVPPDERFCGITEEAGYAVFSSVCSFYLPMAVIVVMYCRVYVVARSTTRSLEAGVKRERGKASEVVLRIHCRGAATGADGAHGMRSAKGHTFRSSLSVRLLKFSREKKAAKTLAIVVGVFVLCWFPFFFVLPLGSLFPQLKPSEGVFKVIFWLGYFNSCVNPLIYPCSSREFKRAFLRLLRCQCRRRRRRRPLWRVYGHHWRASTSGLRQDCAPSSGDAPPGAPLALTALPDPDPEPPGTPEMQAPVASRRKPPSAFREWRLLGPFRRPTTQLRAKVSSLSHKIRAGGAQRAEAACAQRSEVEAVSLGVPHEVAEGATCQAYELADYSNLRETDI
Delta-type opioid receptor (Homo sapiens), sequence (P41143 whole entry): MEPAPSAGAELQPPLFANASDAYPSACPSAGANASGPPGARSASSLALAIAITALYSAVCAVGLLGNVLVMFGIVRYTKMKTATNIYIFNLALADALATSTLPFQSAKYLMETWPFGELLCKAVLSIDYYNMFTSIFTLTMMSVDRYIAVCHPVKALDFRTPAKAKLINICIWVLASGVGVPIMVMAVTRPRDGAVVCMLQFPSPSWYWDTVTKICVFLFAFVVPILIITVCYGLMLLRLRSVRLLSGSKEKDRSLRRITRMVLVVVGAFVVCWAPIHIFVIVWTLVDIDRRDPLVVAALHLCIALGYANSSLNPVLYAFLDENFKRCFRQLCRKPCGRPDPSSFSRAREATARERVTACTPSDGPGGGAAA

CN(C)C(=O)Cn1cc(-c2nc([C@@](C)(c3ccc(-c4cnc(N)nc4)cc3)C3CC3)no2)cn1 [BI 665915]
inactive: residual activity [1] 102% | residual activity [2] 105% | residual activity [3] 111% | residual activity [4] 101% | inhibition [5] -3.06% | residual activity [6] 96% | residual activity [7] 116% | residual activity [8] 106% | residual activity [9] 64% | residual activity [10] 141% | residual activity [11] 108% | residual activity [12] 88%
